Earlier results as cited in US20050129719A1, “Concentrated emulsion formulation for silatecan” (priority 2003, published 2005).

## CC[C@@]1(O)C(=O)OCc2c1cc1n(c2=O)Cc2c-1nc1ccc(O)cc1c2[Si](C)(C)C(C)(C)C [Silatecan, 7-t-butyldimethylsilyl-10-hydroxycamptothecin]
  water-solubility: extremely low water-solubility
